Reference: patent US20250388597A1, “BIFUNCTIONAL PHOTOCROSSLINKING PROBES FOR COVALENT CAPTURE OF PROTEIN-NUCLEIC ACID COMPLEXES IN CELLS” (UNIVERSITY OF SOUTHERN CALIFORNIA, priority 2022, published 2025)
“Also recorded” adds a separate entry of the source.

Biological target: T1, NFAT1/DNA complex (Homo sapiens, UniProt Q13469)
T1 construct: human NFAT1 protein (residue 399-676, NFAT1-DBD)
T1 sequence (Q13469 399-676): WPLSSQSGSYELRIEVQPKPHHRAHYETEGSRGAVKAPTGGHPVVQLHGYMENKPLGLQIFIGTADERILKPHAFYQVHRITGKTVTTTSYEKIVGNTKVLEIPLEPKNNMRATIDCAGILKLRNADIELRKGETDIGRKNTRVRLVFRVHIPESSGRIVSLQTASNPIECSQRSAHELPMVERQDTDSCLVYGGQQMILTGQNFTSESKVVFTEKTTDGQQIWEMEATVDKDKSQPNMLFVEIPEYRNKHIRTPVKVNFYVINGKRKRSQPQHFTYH
Test: In vitro photo-crosslinking of assembled NFAT1/DNA complex, denaturing SDS gel
Assay type: biochemical
Conditions: for formation of covalent NFAT1/DNA crosslinked complex stable under denaturing SDS-PAGE: probe + UV 365 nm, 2% SDS, boil 10 min
Protocol: The probe binding and UV crosslinking were carried out as described in FIG. 5G and FIG. 7. The crosslinked complexes (lane 3 and lane 6) were further treated with DTT (100 mM, heat 50 degree C. for 30 min). The reaction mixtures were run on SDS gel and visualized by FAM fluorescence for DNA (top) and by Coomassie blue stain for protein (bottom) as described in FIG. 7. FIG. 7 depicts denaturing SDS gel analysis of covalent capture of in vitro assembled MEF2/DNA and NFAT1/DNA complexes by the BFPX probe, SPB-AAD. […] The protein/DNA complexes are incubated at room temperature for 30 min, and treated with various combination of BFPX probe (SPB-AAD) and UV illumination as described in FIG. 5G. […] The reaction mixtures were added SDS loading dye (2% SDS), boil for 10 min, and run on SDS gel (Bio-Rad Any Kd gradient gel). The same gel was visualized by FAM fluorescence for DNA (top) and by Coomassie blue stain for protein (bottom). FIG. 8C depicts denaturing SDS gel analysis of covalent capture of in vitro assembled MEF2/DNA and NFAT1/DNA complexes by the BFPX probe, SPB-PEG3-AAD. […] The reaction mixtures were run on SDS gel and visualized by FAM fluorescence for DNA (top) and by Coomassie blue stain for protein (bottom) as described in FIG. 7. […] Typically protein and DNA are mixed to bind at room temperature for 30 min, followed by addition of BFPX probes for an additional 15 min and then UV illumination. In the case of FA treatment, the reaction time is 10 min at room temperature and then quenched by 250 mM glycine. […] The UV illumination (as indicated by a positive sign) was carried out using a LED Chip (21.4 mm×21.4 mm, 365-370 nm, 30 Watt, sample distance 2 cm, exposure time 2-15 min at 4 degree C., here the exposure time is 15 min). […] The small amount of single stranded DNA is due to incomplete annealing. The higher smearing bands are most likely non-specific protein complexes. Neither of these experimental imperfections affected the main conclusion of this experiment because the double stranded-DNA bands and the specific NFAT-DNA complex bands (the middle sharp bands) are well defined and can be monitored without the interference of the other bands. […] The gel was visualized by Cy5 fluorescence for DNA. FIG. 12E depicts further characterization of BFPX crosslinking of NFAT1/DNA complexes using different DNA substrates and staining techniques. Two unlabeled DNA substrates containing a core NFAT-binding site and different flanking bases and sequence lengths ([…] ID NO: 4), 21 mer, c2: [NT] ID NO: 5), 16 mer) were used to bind the NFAT1-DBD as described in FIG. 12C. […] The reactions were then analyzed by SDS PAGE under denaturing condition as described in FIG. 12D. Because the DNA is unlabeled, the gel was stained using either cyanine-based dye (SYBR Safe) or Coomassie Blue stain (CB). […] The different size of the NFAT-c1DNA complexes (lane 2) and NFAT-c2DNA complexes (lane 4) was resolved by loading reactions of lane 2 (2a, 2b and 2c) and lane 4 (4a, 4b and 4c) as triplicates side-by-side on the same gel (lower panel) using either SYBR and CB stain. FIG. 12F depicts time course of BFPX crosslinking of NFAT1/DNA complexes. […] The reactions at different time points were then analyzed on SDS gel as described in FIG. 12D. […] When the UV exposure time is longer than 5 min, a significant amount of crosslinked NFAT-DNA complex can be formed with UV illumination without SPB-AAD.

low probe concentration at which a significant amount of crosslinked protein complex was observed (NFAT1/DNA, FIG. 7 lane 12, UV 365 nm) [µM] | UV illumination time at which crosslinked complex was visible (NFAT1/DNA, probe 100 μM) [s] | UV illumination time at which crosslinking reached plateau (NFAT1/DNA, probe 100 μM, plateau around 100 seconds and 5 min time points) | Structure (SMILES) | formation of covalent NFAT1/DNA crosslinked complex stable under denaturing SDS-PAGE
0.125 | 3 | around 100 seconds | C#CCCC1(CCNC(=O)CCCOc2c3occc3cc3ccc(=O)oc23)N=N1 [SPB-AAD, N-(2-(3-(but-3-yn-1-yl)-3H-diazirin-3-yl)ethyl)-4-((7-oxo-7H-furo[3,2-g]chromen-9-yl)oxy)butanamide] | dosage dependent crosslinking of NFAT1/DNA complexes; also recorded: formation of complexes that run as larger molecular species than both free protein and DNA; also recorded: NFAT was crosslinked to c1 DNA (lane 2) and c2 DNA (lane 4) in the presence of UV
– | – | – | C#CCCC1(CCNC(=O)CCOCCOCCOCCC(=O)NCCNC(=O)CCCOc2c3occc3cc3ccc(=O)oc23)N=N1 [SPB-PEG3-AAD] | highly efficient crosslinking
– | – | – | C#CCCC1(CCNC(=O)CCOCCOCCOCCOCCNC(=O)CCCOc2c3occc3cc3ccc(=O)oc23)N=N1 [SPB-PEG4-AAD, N-(2-(3-(but-3-yn-1-yl)-3H-diazirin-3-yl)ethyl)-1-(4-((7-oxo-7H-furo[3,2-g]chromen-9-yl)oxy)butanamido)-3,6,9,12-tetraoxapentadecan-15-amide] | dosage dependent crosslinking of NFAT1/DNA complexes
